“Also recorded” adds a separate entry of the source. Where a name gives a salt, the structure may show the parent alone.
Columns and labels:
[1] = system: SARS-CoV-2_S (D614G)-pseudotyped lentivirus entry into ACE2-overexpressing 293T cells; format: cell-based
[2] = system: SARS-CoV-2_S (D614G)-pseudotyped lentivirus entry into ACE2-overexpressing Capan2 cells; format: cell-based

SMILES | inhibiting effect on entry of the pseudovirus (EGFP/mCherry signal ratio) [1] | inhibiting effect on entry of the pseudovirus (EGFP/mCherry signal ratio) [2] | inhibiting effect on entry of the pseudovirus [2]
N=C(N)c1ccc2cc(OC(=O)c3ccc(N=C(N)N)cc3)ccc2c1 [Nafamostat mesylate, reference compound] | significant inhibiting effects | exhibited an inhibiting effect; also recorded: block the pseudoviruses from entering | –
COc1ccc2c3ccnc4ccc(=O)n(c2c1)c43 [TS-984, 9-Methoxycanthin-6-one] | significant inhibiting effects; also recorded: greatly reduce the EGFP/mCherry signal ratio | strongest and was dose-dependent; also recorded: greatly reduce the EGFP/mCherry signal ratio; also recorded: effectively block the entry of pseudovirus into Capan2 cells with ACE2 overexpression in a dose-dependent manner | –
O=C1c2ccccc2C(=O)c2ccccc21 [TS-1276, anthraquinone] | significant inhibiting effects | did not present any significant inhibiting effects | –
O=C(OC[C@H]1O[C@@H](OC(=O)c2cc(O)c(O)c(OC(=O)c3cc(O)c(O)c(O)c3)c2)[C@H](OC(=O)c2cc(O)c(O)c(OC(=O)c3cc(O)c(O)c(O)c3)c2)[C@@H](OC(=O)c2cc(O)c(O)c(OC(=O)c3cc(O)c(O)c(O)c3)c2)[C@@H]1OC(=O)c1cc(O)c(O)c(OC(=O)c2cc(O)c(O)c(O)c2)c1)c1cc(O)c(O)c(OC(=O)c2cc(O)c(O)c(O)c2)c1 [tannic acid, reference compound] | – | – | only a mild inhibiting effect; also recorded: did not observe any significant inhibiting effect

— paper PMC9281089 (Journal of Translational Medicine, 2022)
